Holding throughout (assay): inhibition of tumour cell growth, NCI panel, 48 h
Experiment [1] has as its system CAKI-1 renal.
The subject of experiment [2] is EKVX NSCLC.
For experiment [3], the system named is HL-60(TB) leukemia.
The test system of experiment [4] is MDA-MB-435.
In experiment [5] the test system is NCI-H460 lung.
Experiment [6] has as its system NCI/ADR-RES ovarian.
Experiment [7] concerns OVCAR-5 ovarian.
Experiment [8] deals with OVCAR-8 ovarian.
Experiment [9] has as its system SF-268 CNS.
The test system of experiment [10] is SK-MEL-28 melanoma.

Values joined by “and” are separate entries in the source; they are usually repeats but may differ in a detail not shown here. Identical values can stand only once.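 Method: 48-hour compound exposure of cells in 96-well plates, five concentrations, linear interpolation of endpoints. GI50: concentration for 50% inhibition of growth. Definition used: TGI = concentration required for complete inhibition of growth.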

For `C=C(CN1CCN(c2ccccn2)CC1)c1ccc(C(=O)Nc2ccccc2N)cc1`, the GI50 in experiment [1] is 1.19 µM; in experiment [2] it was 5.33 µM; in experiment [3] it was 2200 nM; in experiment [4], 522 nM; in [5], 2.81 µM; in [6], 1.31 µM. The GI50 in experiment [7] is 6.1 µM; in experiment [8], 1.5 µM; in experiment [9] it was 1.66 µM; in experiment [10], 2.52 µM. Besides, the TGI in experiment [1] is 5.03 µM; in experiment [2], more than 50 µM; in experiment [3], more than 50 µM; in [4] it was 1.4 µM; in experiment [5], more than 50 µM; in [6] it was 5.05 µM. In addition, the TGI in experiment [7] was 26.4 µM; in experiment [8], more than 50 µM; in experiment [9] it was 9.22 µM; in experiment [10] it was more than 50 µM.
For `COc1ccc2c(CN3CCCC[C@H]3O)cc3cc4c(cc3c2c1)OCO4`, the GI50 was 0.518 µM in experiment [1]; 0.817 µM in experiment [2]; 351 nM in experiment [3]; 422 nM in experiment [4]; 0.295 µM in experiment [5]; 0.435 µM in experiment [6]. The GI50 in experiment [7] is 0.489 µM; in experiment [8], 0.268 µM; in [9], 0.417 µM; in experiment [10], 0.329 µM. For the same compound, the TGI in [1] turned out to be 5.66 µM; in experiment [2] it was 9.44 µM; in experiment [3], 1.35 µM; in [4] it was 1.62 µM; in experiment [5], 10.4 µM; in experiment [6] it was 6.94 µM. Moreover, the TGI was determined as 14.1 µM in experiment [7], 3.94 µM in [8], 5.74 µM in [9] and 1.31 µM in [10].
Take `COC(=O)N[C@@H](C)CNc1nccc(-c2cn(C(C)C)nc2-c2cc(Cl)cc(NS(C)(=O)=O)c2F)n1`: the GI50 in experiment [1] was 4.95 µM; in [3], 741 nM; in [4], less than 10 nM; in experiment [6], more than 100 µM; in [7] it was more than 39.2 µM; in experiment [8], more than 100 µM. Moreover, the GI50 in [9] was more than 100 µM. Moreover, the TGI is more than 100 µM in experiment [1]; more than 57.9 µM in experiment [3]; more than 100 µM in experiment [4]; more than 100 µM in experiment [6]; more than 100 µM in experiment [7]; more than 100 µM in [8]. The TGI in experiment [9] is more than 100 µM.
As to `COc1ccc(C2=NNC(c3sc(Cl)nc3Cl)C2)cc1` (stereo not drawn), the GI50 in experiment [1] was 11.8 µM; in experiment [3], 10400 nM; in experiment [4], 3250 nM; in [5] it was 24.3 µM; in experiment [6] it was 10.2 µM; in [7] it was 9.21 µM. For the same compound, the values for the GI50 in experiment [8], in experiment [9] and in experiment [10] were 3.6 µM, 5.65 µM and 10.9 µM, respectively. For the same compound, the TGI in [1] was 39.4 µM; in experiment [3] it was 64.1 µM; in experiment [4], 16.7 µM; in experiment [5] it was 75.1 µM; in [6] it was more than 100 µM; in experiment [7], 26.4 µM. Moreover, the results for the TGI in [8], in [9] and in experiment [10] were 21.5 µM, 27.5 µM and 24.8 µM, respectively.
For `CN1C2C=CC(=O)C1C(C#N)C2` (stereo not drawn), the GI50 in experiment [2] is 20.6 µM and 44.2 µM; in experiment [8], 20.5 µM and 45.7 µM; in experiment [10], 30 µM and > 100 µM. Also, the TGI was 49.6 µM and > 100 µM in experiment [2]; 43.7 µM and > 100 µM in experiment [3]; more than 100 µM in [4]; more than 100 µM in [5]; more than 100 µM in [6]; 15.7 µM and > 100 µM in experiment [7]. Besides, the TGI in experiment [8] is 44.8 µM and > 100 µM; in [9], more than 100 µM; in [10], more than 100 µM.
With `COc1ccc(C(=O)c2ccccc2)c(O)c1`, the GI50 in [1] is 67.4 µM; in experiment [2] it was 40.9 µM; in experiment [3], 96900 nM; in experiment [4], 66600 nM; in experiment [5], 88.4 µM; in experiment [6], 53.1 µM. The GI50 in [7] was more than 100 µM; in experiment [8] it was more than 100 µM; in [9], 55.2 µM; in [10], more than 100 µM. Moreover, the TGI in [1], in experiment [2], in [3], in experiment [4], in [5] and in experiment [6] was more than 100 µM each time. Besides, the TGI in [7], in [8], in experiment [9] and in [10] was more than 100 µM each time.
`COc1ccc2c(c1)[n+](=O)c(/C=C/C(=O)c1cc(OC)c(OC)c(OC)c1)c(C)n2[O-]`: the GI50 in [1] was 5.31 µM; in experiment [2] it was 5.82 µM; in experiment [3] it was 4980 nM; in experiment [4], 6650 nM; in [5], 13.3 µM; in experiment [6] it was 11.3 µM. Also, the GI50 in experiment [7] was 28.7 µM; in experiment [8], 5.3 µM; in experiment [9], 6.11 µM; in [10] it was 12.3 µM. Also, the TGI was more than 100 µM in experiment [1]; more than 100 µM in experiment [2]; 22.4 µM in experiment [3]; more than 100 µM in experiment [4]; 45.5 µM in [5]; 39.5 µM in experiment [6]. The TGI in experiment [7] was more than 100 µM; in experiment [8], more than 100 µM; in experiment [9], 45.6 µM; in [10], 50.9 µM.
In the case of `CN(Cc1cnc2nc(N)nc(N)c2n1)c1c(Cl)cc(C(=O)NC(CCC(=O)O)C(=O)O)cc1Cl` (stereo not drawn), the GI50 in experiment [1] is less than 0.01 µM; in [3] it was less than 10 nM; in [4], less than 10 nM; in experiment [5], less than 0.01 µM; in [6], less than 0.01 µM; in [7], 1.76 µM. For the same compound, the GI50 is less than 0.01 µM in experiment [8], less than 0.0169 µM in [9] and 0.313 µM in experiment [10]. Moreover, the TGI is 0.0242 µM in [1]; more than 100 µM in experiment [2]; more than 100 µM in experiment [3]; more than 100 µM in experiment [4]; more than 100 µM in experiment [5]; more than 100 µM in experiment [6]. The TGI in [7], in experiment [8], in experiment [9] and in experiment [10] was more than 100 µM throughout.
